Source: ChEMBL document CHEMBL4507318, “Data for DCP probe BAY-985” (2021)

Columns and labels:
[1] = test system: Phosphatidylinositol 4,5-bisphosphate 3-kinase catalytic subunit alpha isoform (Homo sapiens), P42336 [E545K]
[2] = target: Ribosomal protein S6 kinase alpha-5 (Homo sapiens) (UniProt O75582)
[3] = target: Serine/threonine-protein kinase 17A (Homo sapiens) (UniProt Q9UEE5)
[4] = target: Cyclin-dependent kinase-like 1 (Homo sapiens) (UniProt Q00532)
[5] = target: Dual specificity protein kinase CLK3 (Homo sapiens) (UniProt P49761)
Sequence of Dual specificity protein kinase CLK3 (Homo sapiens) (P49761 whole entry, looked up): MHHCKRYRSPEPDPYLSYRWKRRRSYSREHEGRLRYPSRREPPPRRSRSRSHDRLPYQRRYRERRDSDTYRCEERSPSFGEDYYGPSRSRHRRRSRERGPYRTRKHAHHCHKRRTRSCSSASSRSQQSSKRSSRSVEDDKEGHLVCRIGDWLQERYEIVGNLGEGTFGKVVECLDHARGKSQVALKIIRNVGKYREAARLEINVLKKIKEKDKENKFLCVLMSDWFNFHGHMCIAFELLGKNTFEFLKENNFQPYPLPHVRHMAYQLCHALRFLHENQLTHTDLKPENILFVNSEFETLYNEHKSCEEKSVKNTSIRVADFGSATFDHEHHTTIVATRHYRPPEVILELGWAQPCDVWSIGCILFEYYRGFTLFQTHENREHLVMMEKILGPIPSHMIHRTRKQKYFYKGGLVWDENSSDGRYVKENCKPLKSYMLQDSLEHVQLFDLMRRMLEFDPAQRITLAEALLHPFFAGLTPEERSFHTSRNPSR

[6] = target: Tyrosine-protein kinase JAK2 (Homo sapiens) (UniProt O60674)
[7] = target: Casein kinase I isoform gamma-2 (Homo sapiens) (UniProt P78368)
[8] = target: Myosin-IIIb (Homo sapiens) (UniProt Q8WXR4)
[9] = target: Cyclin-dependent kinase 8 (Homo sapiens) (UniProt P49336)
Sequence of Cyclin-dependent kinase 8 (Homo sapiens) (P49336 whole entry): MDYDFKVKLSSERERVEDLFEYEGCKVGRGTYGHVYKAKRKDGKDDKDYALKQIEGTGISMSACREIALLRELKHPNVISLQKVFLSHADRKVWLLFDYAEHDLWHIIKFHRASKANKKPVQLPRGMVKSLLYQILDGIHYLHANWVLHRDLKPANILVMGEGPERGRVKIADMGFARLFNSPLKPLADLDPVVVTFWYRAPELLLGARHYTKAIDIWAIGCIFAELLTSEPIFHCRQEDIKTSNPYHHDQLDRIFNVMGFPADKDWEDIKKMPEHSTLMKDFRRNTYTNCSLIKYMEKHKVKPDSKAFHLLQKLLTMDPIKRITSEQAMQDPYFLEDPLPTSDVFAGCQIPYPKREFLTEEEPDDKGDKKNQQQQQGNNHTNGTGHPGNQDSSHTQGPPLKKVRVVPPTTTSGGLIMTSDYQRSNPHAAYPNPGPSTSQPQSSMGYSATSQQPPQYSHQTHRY

[10] = target: Platelet-derived growth factor receptor alpha (Homo sapiens) (UniProt P16234)
Sequence of Platelet-derived growth factor receptor alpha (Homo sapiens) (P16234 whole entry): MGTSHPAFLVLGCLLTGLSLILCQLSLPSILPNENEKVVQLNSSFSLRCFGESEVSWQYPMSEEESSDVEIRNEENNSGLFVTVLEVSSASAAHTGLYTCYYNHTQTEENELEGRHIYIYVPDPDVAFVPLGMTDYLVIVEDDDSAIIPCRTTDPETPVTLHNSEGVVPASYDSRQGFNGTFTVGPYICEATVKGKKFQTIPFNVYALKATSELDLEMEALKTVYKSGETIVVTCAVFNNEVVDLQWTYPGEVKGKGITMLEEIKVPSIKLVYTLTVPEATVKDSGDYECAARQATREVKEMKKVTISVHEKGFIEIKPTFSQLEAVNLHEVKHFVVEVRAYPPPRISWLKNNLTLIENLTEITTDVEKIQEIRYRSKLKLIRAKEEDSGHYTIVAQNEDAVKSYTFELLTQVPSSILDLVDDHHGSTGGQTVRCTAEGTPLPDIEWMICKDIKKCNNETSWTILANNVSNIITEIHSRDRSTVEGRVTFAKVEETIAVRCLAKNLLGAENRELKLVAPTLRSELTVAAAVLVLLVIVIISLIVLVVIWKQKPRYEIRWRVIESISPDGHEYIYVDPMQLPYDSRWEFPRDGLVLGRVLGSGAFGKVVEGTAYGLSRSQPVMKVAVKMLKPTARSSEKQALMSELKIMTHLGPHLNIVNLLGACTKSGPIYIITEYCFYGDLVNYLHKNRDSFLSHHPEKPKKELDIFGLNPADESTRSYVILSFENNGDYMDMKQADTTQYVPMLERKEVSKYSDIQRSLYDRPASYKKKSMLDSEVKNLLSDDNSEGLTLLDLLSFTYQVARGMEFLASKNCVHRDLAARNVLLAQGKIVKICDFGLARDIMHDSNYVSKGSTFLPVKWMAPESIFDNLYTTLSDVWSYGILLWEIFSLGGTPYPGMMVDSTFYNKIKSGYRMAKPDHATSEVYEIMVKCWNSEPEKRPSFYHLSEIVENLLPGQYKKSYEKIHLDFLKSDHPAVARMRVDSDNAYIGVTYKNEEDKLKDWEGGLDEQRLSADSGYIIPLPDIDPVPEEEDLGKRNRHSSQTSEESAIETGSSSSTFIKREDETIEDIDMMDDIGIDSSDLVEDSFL

[11] = target: Mu-type opioid receptor (Homo sapiens) (UniProt P35372); conditions: Compound concentration 10.0 uM
[12] = target: Sigma intracellular receptor 2 (Homo sapiens, UniProt Q5BJF2); assay: GPCRScan assay: inhibition of Sigma 2; set-up: radioligand conc. used [nm] 5.0, parental cells HEKT
Sequence of Sigma intracellular receptor 2 (Q5BJF2 whole entry): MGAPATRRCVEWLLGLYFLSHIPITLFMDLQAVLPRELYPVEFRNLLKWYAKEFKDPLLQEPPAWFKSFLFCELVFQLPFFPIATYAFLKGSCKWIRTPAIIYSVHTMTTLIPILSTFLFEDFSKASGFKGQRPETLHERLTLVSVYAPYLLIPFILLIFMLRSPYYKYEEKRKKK

[13] = target: 5'-AMP-activated protein kinase catalytic subunit alpha-1 (Homo sapiens) (UniProt Q13131)
Sequence of 5'-AMP-activated protein kinase catalytic subunit alpha-1 (Homo sapiens) (Q13131 whole entry, looked up): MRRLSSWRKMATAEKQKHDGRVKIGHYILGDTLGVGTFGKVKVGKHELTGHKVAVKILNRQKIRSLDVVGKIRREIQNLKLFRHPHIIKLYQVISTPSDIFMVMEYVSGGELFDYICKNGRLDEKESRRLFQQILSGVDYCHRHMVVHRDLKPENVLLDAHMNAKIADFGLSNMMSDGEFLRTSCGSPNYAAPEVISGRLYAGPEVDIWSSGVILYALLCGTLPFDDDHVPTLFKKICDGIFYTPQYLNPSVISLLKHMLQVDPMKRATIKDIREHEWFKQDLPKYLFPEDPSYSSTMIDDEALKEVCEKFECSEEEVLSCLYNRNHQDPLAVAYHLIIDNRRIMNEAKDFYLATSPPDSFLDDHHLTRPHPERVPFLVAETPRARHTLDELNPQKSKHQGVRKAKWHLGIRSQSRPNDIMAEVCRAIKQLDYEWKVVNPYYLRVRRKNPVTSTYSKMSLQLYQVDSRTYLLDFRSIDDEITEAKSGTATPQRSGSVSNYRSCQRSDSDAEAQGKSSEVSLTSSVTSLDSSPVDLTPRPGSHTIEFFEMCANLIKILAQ

[14] = target: cGMP-dependent protein kinase 1 (Homo sapiens) (UniProt Q13976)
[15] = target: LIM domain kinase 2 (Homo sapiens) (UniProt P53671)
[16] = target: cAMP-dependent protein kinase catalytic subunit PRKX (Homo sapiens) (UniProt P51817)
[17] = target: Serine/threonine-protein kinase PAK 6 (Homo sapiens) (UniProt Q9NQU5)
[18] = test system: Tyrosine-protein kinase ABL1 (Homo sapiens), P00519 [F317I]
[19] = target: Phosphatidylinositol 4,5-bisphosphate 3-kinase catalytic subunit beta isoform (Homo sapiens) (UniProt P42338)
[20] = target: Mitogen-activated protein kinase kinase kinase 7 (Homo sapiens) (UniProt O43318)
[21] = target: 5-hydroxytryptamine receptor 2C (Homo sapiens) (UniProt P28335); conditions: Compound concentration 10.0 uM
[22] = target: Serine/threonine-protein kinase Nek11 (Homo sapiens) (UniProt Q8NG66)
[23] = target: Mitogen-activated protein kinase 14 (Homo sapiens) (UniProt Q16539)
[24] = target: Serine/threonine-protein kinase PLK2 (Homo sapiens) (UniProt Q9NYY3)
[25] = target: MAP/microtubule affinity-regulating kinase 4 (Homo sapiens) (UniProt Q96L34)
[26] = target: Serine/threonine-protein kinase PLK4 (Homo sapiens) (UniProt O00444)
[27] = target: Calcium/calmodulin-dependent protein kinase type 1B (Homo sapiens) (UniProt Q6P2M8)
[28] = target: RAC-alpha serine/threonine-protein kinase (Homo sapiens) (UniProt P31749)
[29] = target: Ribosomal protein S6 kinase alpha-5 (Homo sapiens) (UniProt O75582); remark: listed apart in the source
[30] = target: Uncharacterized serine/threonine-protein kinase SBK3 (Homo sapiens) (UniProt P0C264)
Sequence of Uncharacterized serine/threonine-protein kinase SBK3 (Homo sapiens) (P0C264 whole entry): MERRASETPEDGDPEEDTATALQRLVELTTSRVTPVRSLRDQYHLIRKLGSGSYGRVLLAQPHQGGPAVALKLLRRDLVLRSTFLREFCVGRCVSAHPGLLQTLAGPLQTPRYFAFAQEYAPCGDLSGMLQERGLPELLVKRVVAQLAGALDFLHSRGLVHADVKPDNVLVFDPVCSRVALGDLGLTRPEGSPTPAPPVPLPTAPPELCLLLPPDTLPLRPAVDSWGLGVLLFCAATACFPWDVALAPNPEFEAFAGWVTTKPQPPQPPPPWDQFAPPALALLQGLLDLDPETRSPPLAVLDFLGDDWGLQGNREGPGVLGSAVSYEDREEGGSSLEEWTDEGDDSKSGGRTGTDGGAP

[31] = target: Beta-2 adrenergic receptor (Homo sapiens) (UniProt P07550); conditions: Compound concentration 10.0 uM
[32] = target: Serine/threonine-protein kinase TBK1 (Homo sapiens) (UniProt Q9UHD2)
[33] = target: Interleukin-1 receptor-associated kinase 1 (Homo sapiens) (UniProt P51617)
[34] = target: AP2-associated protein kinase 1 (Homo sapiens) (UniProt Q2M2I8)
[35] = target: Ribosomal protein S6 kinase alpha-2 (Homo sapiens) (UniProt Q15349)
[36] = target: Calcium/calmodulin-dependent protein kinase type 1G (Homo sapiens) (UniProt Q96NX5)
[37] = test system: Tyrosine-protein kinase ABL1 (Homo sapiens), P00519 [T315I]
[38] = target: Serine/threonine-protein kinase MRCK gamma (Homo sapiens) (UniProt Q6DT37)
[39] = test system: Epidermal growth factor receptor (Homo sapiens), P00533 [L858R]
[40] = target: Non-receptor tyrosine-protein kinase TNK1 (Homo sapiens) (UniProt Q13470)
[41] = target: Mitogen-activated protein kinase 12 (Homo sapiens) (UniProt P53778)
[42] = target: MAP kinase-activated protein kinase 5 (Homo sapiens) (UniProt Q8IW41)
[43] = target: Fibroblast growth factor receptor 3 (Homo sapiens) (UniProt P22607)
Sequence of Fibroblast growth factor receptor 3 (Homo sapiens) (P22607 23-806 limits assumed): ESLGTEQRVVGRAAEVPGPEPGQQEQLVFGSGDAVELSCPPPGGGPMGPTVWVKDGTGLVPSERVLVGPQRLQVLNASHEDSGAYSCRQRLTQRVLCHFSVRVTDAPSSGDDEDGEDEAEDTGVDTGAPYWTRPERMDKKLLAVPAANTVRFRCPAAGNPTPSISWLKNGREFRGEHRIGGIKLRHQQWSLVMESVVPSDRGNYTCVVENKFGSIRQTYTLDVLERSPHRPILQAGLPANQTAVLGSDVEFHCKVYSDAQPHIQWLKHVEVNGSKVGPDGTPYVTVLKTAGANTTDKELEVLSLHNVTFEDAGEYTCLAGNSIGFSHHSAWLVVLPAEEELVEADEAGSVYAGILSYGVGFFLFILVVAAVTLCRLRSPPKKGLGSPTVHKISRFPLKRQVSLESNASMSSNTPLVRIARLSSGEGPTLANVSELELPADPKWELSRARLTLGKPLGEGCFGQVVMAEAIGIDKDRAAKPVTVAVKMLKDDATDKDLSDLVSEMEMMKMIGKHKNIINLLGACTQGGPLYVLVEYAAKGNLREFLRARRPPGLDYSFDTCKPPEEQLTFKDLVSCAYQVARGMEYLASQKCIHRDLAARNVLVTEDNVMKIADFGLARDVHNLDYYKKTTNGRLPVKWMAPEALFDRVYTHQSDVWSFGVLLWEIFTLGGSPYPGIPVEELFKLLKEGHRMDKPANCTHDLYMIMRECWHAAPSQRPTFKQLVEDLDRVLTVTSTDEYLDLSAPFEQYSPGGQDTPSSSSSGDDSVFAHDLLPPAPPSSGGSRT

[44] = target: Myosin light chain kinase 2, skeletal/cardiac muscle (Homo sapiens) (UniProt Q9H1R3)
[45] = target: Ankyrin repeat and protein kinase domain-containing protein 1 (Homo sapiens) (UniProt Q8NFD2)
[46] = Compound concentration 1000.0 nM
[47] = Compound concentration 100.0 nM

Sequence of Ribosomal protein S6 kinase alpha-5 (Homo sapiens) (O75582 whole entry, looked up): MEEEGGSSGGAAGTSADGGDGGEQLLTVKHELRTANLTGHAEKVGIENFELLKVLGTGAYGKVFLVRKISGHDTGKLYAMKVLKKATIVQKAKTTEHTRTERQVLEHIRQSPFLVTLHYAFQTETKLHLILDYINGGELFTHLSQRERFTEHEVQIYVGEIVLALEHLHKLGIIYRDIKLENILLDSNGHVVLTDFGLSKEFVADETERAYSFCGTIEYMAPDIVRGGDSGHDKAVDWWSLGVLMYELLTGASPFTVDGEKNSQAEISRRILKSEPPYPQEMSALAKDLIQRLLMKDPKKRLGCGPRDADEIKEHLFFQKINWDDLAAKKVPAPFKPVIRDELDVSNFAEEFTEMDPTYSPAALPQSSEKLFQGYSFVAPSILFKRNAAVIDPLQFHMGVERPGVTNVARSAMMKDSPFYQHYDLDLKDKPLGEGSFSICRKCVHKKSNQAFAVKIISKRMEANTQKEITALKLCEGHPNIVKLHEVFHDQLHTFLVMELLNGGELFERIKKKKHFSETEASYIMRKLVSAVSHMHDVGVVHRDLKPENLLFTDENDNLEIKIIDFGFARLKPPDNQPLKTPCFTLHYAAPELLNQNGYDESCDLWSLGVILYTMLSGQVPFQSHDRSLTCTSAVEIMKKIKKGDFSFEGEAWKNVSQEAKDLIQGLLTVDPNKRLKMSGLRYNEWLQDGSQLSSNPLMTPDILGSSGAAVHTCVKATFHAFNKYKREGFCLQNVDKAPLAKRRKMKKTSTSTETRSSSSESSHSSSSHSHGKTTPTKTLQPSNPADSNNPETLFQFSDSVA

Work on `CN(C)c1ncnc(-c2ccc3nc(Nc4cc(CN5CCN(C(=O)CC(F)(F)F)CC5)ccn4)[nH]c3c2)c1Cl` [BAY-440] yielded a residual activity [1, 46] of 76%, a residual activity [2, 46] of 100% and a residual activity [3, 46] of 34%. The residual activity [4, 46] was 96%, the residual activity [5, 46] was 100% and the residual activity [6, 46] was 44%. For the same compound, the residual activity [7, 46] was 100%, the residual activity [8, 46] was 100% and the residual activity [9, 46] was 90%. The residual activity [10, 46] was 61%, the inhibition [11] was 14.1% and the Ki ([12]; read-out: Ki) was 2.19 µM. It also gave a residual activity [13, 46] of 100%, a residual activity [14, 46] of 94% and a residual activity [15, 46] of 100%. It also gave a residual activity [16, 46] of 100%, a residual activity [17, 46] of 100% and a residual activity [18, 46] of 71%. The residual activity [19, 46] was 82%, the residual activity [20, 46] was 74% and the inhibition [21] was 0.02%. For the same compound, the residual activity [22, 46] was 55%, the residual activity [23, 46] was 100% and the residual activity [24, 46] was 100%. For the same compound, the residual activity [25, 46] was 100%, the residual activity [26, 46] was 76% and the residual activity [27, 46] was 72%. The residual activity [28, 46] was 100%, the residual activity [29, 46] was 85% and the residual activity [30, 46] was 100%. The inhibition [31] was 12.6%, the residual activity [32, 46] was 24% and the residual activity [33, 46] was 44%. For the same compound, the residual activity [34, 46] was 85%, the residual activity [35, 46] was 100% and the residual activity [36, 46] was 100%. The residual activity [37, 46] was 51%, the residual activity [38, 46] was 100% and the residual activity [39, 46] was 100%. It also gave a residual activity [40, 46] of 96%, a residual activity [41, 46] of 68% and a residual activity [42, 46] of 96%. The residual activity [43, 46] was 100%, the residual activity [44, 46] was 100% and the residual activity [45, 46] was 57%.
Compound `C[C@H](c1ccnc(Nc2nc3ccc(-c4cc(N(C)C)ncn4)cc3[nH]2)c1)N1CCN(C(=O)CC(F)(F)F)CC1` [BAY-985] has a residual activity [1, 47] of 100%, a residual activity [2, 47] of 88% and a residual activity [3, 47] of 40%. The residual activity [4, 47] was 100%, the residual activity [5, 47] was 100% and the residual activity [6, 47] was 100%. It also gave a residual activity [7, 47] of 96%, a residual activity [8, 47] of 100% and a residual activity [9, 47] of 96%. It also gave a residual activity [10, 47] of 99%, an inhibition [11] of 26% and a Ki ([12]; read-out: Ki) of 1.16 µM. For the same compound, the Ki ([12]; read-out: pKi (converted)) was 1.12 µM, the residual activity [13, 47] was 100% and the residual activity [14, 47] was 100%. For the same compound, the residual activity [15, 47] was 88%, the residual activity [16, 47] was 99% and the residual activity [17, 47] was 100%. For the same compound, the residual activity [18, 47] was 100%, the residual activity [19, 47] was 100% and the residual activity [20, 47] was 85%. For the same compound, the inhibition [21] was 11.4%, the residual activity [22, 47] was 96% and the residual activity [23, 47] was 100%. It also gave a residual activity [24, 47] of 100%, a residual activity [25, 47] of 100% and a residual activity [26, 47] of 96%. For the same compound, the residual activity [27, 47] was 100%, the residual activity [28, 47] was 100% and the residual activity [29, 47] was 61%. It also gave a residual activity [30, 47] of 100%, an inhibition [31] of 33.3% and a residual activity [32, 47] of 2.4%. The residual activity [33, 47] was 100%, the residual activity [34, 47] was 60% and the residual activity [35, 47] was 98%. It also gave a residual activity [36, 47] of 76%, a residual activity [37, 47] of 89% and a residual activity [38, 47] of 79%. It also gave a residual activity [39, 47] of 95%, a residual activity [40, 47] of 100% and a residual activity [41, 47] of 95%. For the same compound, the residual activity [42, 47] was 86%, the residual activity [43, 47] was 100% and the residual activity [44, 47] was 92%. The residual activity [45, 47] was 99%.
